Converted amounts (≈) assume the structure as drawn.
system: S. pneumoniae ATCC 49619; experiment: Minimal inhibitory concentration (MIC) by microdilution method (CLSI M7-A7); assay type: cell-based, Streptococcus pneumoniae; conditions: Streptococcus pneumoniae, ATCC49619, cation-adjusted Mueller-Hinton Broth supplemented with 3% (v/v) lysed horse blood
In short: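 For S. pneumoniae, cation-adjusted Mueller-Hinton broth carried 3% (v/v) lysed horse blood; MICs (mg/l) were read by CLSI M7-A7 microdilution.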

Structure (SMILES)	MIC
CCNC(=O)Nc1cc2c(Nc3cccnc3)ccc(Nc3cccnc3)c2cn1 [Example 268, 1-[5,8-bis-(pyridin-3-ylamino)-isoquinolin-3-yl]-3-ethyl-urea]	4 µg/mL (≈ 10 µM)
CCNC(=O)Nc1cc2cc(NCc3cccc(C(=O)O)c3)cc(C)c2cn1.Cl [Example 128, 3-{[3-(3-ethyl-ureido)-8-methyl-isoquinolin-6-ylamino]-methyl}-benzoic acid hydrochloride]	8 µg/mL
CCNC(=O)Nc1cc2c(CNC)ccc(Nc3cccnc3)c2cn1 [Example 270, 1-ethyl-3-{5-[(methylamino)methyl]-8-(pyridin-3-ylamino)-isoquinolin-3-yl}-urea]	4 µg/mL (≈ 11.4 µM)
CCNC(=O)Nc1cc2cccc(Nc3ccc(CC(N)=O)cc3)c2cn1.Cl [Example 253, 2-{4-[3-(3-ethyl-ureido)-isoquinolin-8-ylamino]-phenyl}-acetamide hydrochloride]	4 µg/mL
CCCNc1cc(C)c2cnc(NC(=O)NCC)cc2c1 [Example 115, 1-ethyl-3-(8-methyl-6-propylamino-isoquinolin-3-yl)-urea]	4 µg/mL (≈ 14 µM)
CCNC(=O)Nc1cc2cc(-c3ccccc3NC(C)=O)cc(C)c2cn1 [Example 86, N-{2-[3-(3-ethyl-ureido)-8-methyl-isoquinolin-6-yl]-phenyl}-acetamide]	16 µg/mL (≈ 44.1 µM)
CCNC(=O)Nc1cc2cccc(NC(=O)c3cnn[nH]3)c2cn1.Cl [Example 183, 3H-[1,2,3]triazole-4-carboxylic acid [3-(3-ethyl-ureido)-isoquinolin-8-yl]-amide hydrochloride]	4 µg/mL
CCNC(=O)Nc1cc2cc(-c3cncnc3)cc(C)c2cn1 [Example 75, 1-ethyl-3-(8-methyl-6-pyrimidin-5-yl-isoquinolin-3-yl)-urea]	4 µg/mL (≈ 13 µM)

The next molecules have a lower MIC than those just listed; values first:

MIC	Structure (SMILES)
2 µg/mL (≈ 6.77 µM)	CCNC(=O)Nc1cc2cc(-c3ccco3)cc(C)c2cn1 [Example 78, 1-ethyl-3-(6-furan-2-yl-8-methyl-isoquinolin-3-yl)-urea]
2 µg/mL	CCNC(=O)Nc1cc2cccc(Nc3ccncc3F)c2cn1.Cl [Example 157, 1-ethyl-3-[8-(3-fluoro-pyridin-4-ylamino)-isoquinolin-3-yl]-urea hydrochloride]
2 µg/mL (≈ 6.28 µM)	C=Cc1ccc(-c2ccncc2)c2cc(NC(=O)NCC)ncc12 [Example 140, 1-ethyl-3-[5-(pyridin-4-yl)-8-vinylisoquinolin-3-yl]-urea]
2 µg/mL (≈ 5.1 µM)	CCNC(=O)Nc1cc2c(N3CCOCC3)ccc(Nc3cccnc3)c2cn1 [Example 274, 1-ethyl-3-[5-morpholin-4-yl-8-(pyridin-3-ylamino)-isoquinolin-3-yl]-urea]
2 µg/mL (≈ 6.22 µM)	CCNC(=O)Nc1cc2cc(-c3ccccc3O)cc(C)c2cn1 [Example 109, 1-ethyl-3-[6-(2-hydroxy-phenyl)-8-methyl-isoquinolin-3-yl]-urea]
1 µg/mL (≈ 2.32 µM)	CCNC(=O)Nc1cc2c(F)c(-c3cccnc3)cc(-c3ccc(C(=O)O)cc3)c2cn1 [Example 33, 4-[3-(3-ethyl-ureido)-5-fluoro-6-pyridin-3-yl-isoquinolin-8-yl]-benzoic acid]
1 µg/mL (≈ 2.46 µM)	CCNC(=O)Nc1cc2cc(NC(=O)c3ccc(C(=O)OC)cc3)cc(C)c2cn1 [Example 193, N-[3-(3-ethyl-ureido)-8-methyl-isoquinolin-6-yl]terephthalamic acid methyl ester]
0.5 µg/mL (≈ 1.38 µM)	CCNC(=O)Nc1cc2c(-c3ccc(C(=O)NC)cc3)ccc(C)c2cn1 [Example 6, 4-[3-(3-ethyl-ureido)-8-methyl-isoquinolin-5-yl]-N-methyl-benzamide]
0.5 µg/mL (≈ 1.13 µM)	CCNC(=O)Nc1cc2c(-c3ccnc(C)c3)ccc(Nc3cccc(C(=O)O)c3)c2cn1 [Example 246, 3-[3-(3-ethyl-ureido)-5-(2-methyl-pyridin-4-yl)-isoquinolin-8-ylamino]-benzoic acid]
0.5 µg/mL (≈ 1.08 µM)	CCNC(=O)Nc1cc2c(-c3ccc(S(N)(=O)=O)cc3)ccc(Nc3cccnc3)c2cn1 [Example 230, 4-[3-(3-ethyl-ureido)-8-(pyridin-3-ylamino)-isoquinolin-5-yl]-benzenesulfonamide]
